One may read the viability as a per cent measure of how many cells are alive, often set against a control. The low end stands for a greater loss of cells, the high end for better survival.

The structures appear in SMILES notation. Some results are limits rather than exact numbers.

This is an account of results in patent US5506213A, “Adminstration of 2'-halo-2'-deoxy adenosine to treat inflammatory bowel disease” (priority 1994, dated 1996).

Series [1] has as its system Adenocarcinoma 755 (Ad755). The settings on record: cited from earlier work.
The test system of the next series is adenosine deaminase. The settings on record: cited from earlier work.
Series [2] deals with HIV. The following applies: cited from earlier work.
Series [3] has as its system HIV. The following applies: cultured human T lymphoblasts; cited from earlier work.
In series [4] the test system is HIV. The experiment in a line: Inhibition of p24 (gag) production of HIV from MDM cells, 3-day assay. Type of series: cell-based. The following applies: 0.1-100 μM.
The next series relates to T cell line Molt-4. The experiment in a line: cells. The following applies: Homo sapiens.
In series [5] the test system is monocyte-like cell line HL-60. The experiment in a line: cells. The following applies: Homo sapiens.
Description: (§5) Seven different cell lines were treated with varying concentrations of 2-chloro-9,1'-beta-2'-deoxy-2'-fluoro-D-arabinofuranosyladenine (CAFdA) to determine percent viability. CAFdA concentrations ranging from 0 to about 260 nM were used to treat each cell line in vitro.
Series [6] deals with monocyte-like cell line THP-1. Briefly: cells. The settings on record: Homo sapiens.
Description: as §5
A further series has as its system DHL9, wild type. Briefly: Direct comparative cytotoxicity assay (Table II), DHL9 wild type. In kind it is cell-based, human. The settings on record: DHL9, wild type. The source says: (§1) The two compounds, CdA and CAFdA, were also compared for in vitro activity against another group of human cell lines in a direct comparative assay.
(§2) ^1 Concentration that produced 50 percent reduction in all numbers
(§3) ^2 CEM cells are T lymphoblasts; DHL9 cells are lymphoblasts.

In series [7] the test system is monocyte-like cell line U937. The experiment in a line: cells. The following applies: Homo sapiens, U-937.
Description: as §5
Another series relates to T cell line CEM. The experiment in a line: cells. The settings on record: Homo sapiens.
For series [8], the system named is Peripheral blood lymphocytes. The experiment in a line: Direct comparative cytotoxicity assay (Table II), peripheral blood lymphocytes. In kind it is cell-based, human. The following applies: Peripheral blood lymphocytes.
Description: as §1, §2

Series [9] has as its system CEM, Increased 5'-nucleoside. The experiment in a line: Direct comparative cytotoxicity assay (Table II), CEM increased 5'-nucleoside. Type of series: cell-based, human. The following applies: CEM, Increased 5'-nucleoside.
Description: as §1, §2, §3

A further series concerns CEM, wild type. The experiment in a line: Direct comparative cytotoxicity assay (Table II), CEM wild type. Type of series: cell-based, human. The following applies: CEM, wild type.
Description: as §1, §2, §3

Series [10] deals with DHL9, Increased ribonucleotide reduction. The experiment in a line: Direct comparative cytotoxicity assay (Table II), DHL9 increased ribonucleotide reduction. Type of series: cell-based, human. The following applies: DHL9, Increased ribonucleotide reduction.
Description: as §1, §2, §3

For another series, the system named is monocytes. Briefly: Direct comparative cytotoxicity assay (Table II), monocytes. In kind it is cell-based, human. The following applies: Monocytes.
Description: as §1, §2

Series [11] has as its system delayed-type hypersensitivity (DTH) response. The experiment in a line: Delayed-type hypersensitivity to ovalbumin in guinea pigs, oral and intraperitoneal treatment. In kind it is in vivo, guinea pig. The settings on record: dexamethasone 5 mg/kg, CdA or CAFdA 1 mg/kg, 24 and 48 hours, p<0.01. The protocol:
(§4) Delayed-type hypersensitivity (DTH) is a cell-mediated immune response that typically takes longer than 12 hours to develop. In the guinea pig, a DTH reaction to an antigen can be established by first immunizing the animal with the antigen in an adjuvant such as Freund's complete adjuvant. Subsequent intradermal injection of the antigen causes no change for at least 10 hours, after which there is a gradual increase in erythema and swelling in response to antigen injection. This response peaks about at about 24 hours after challenge, then gradually subsides.
Histologically, the inflammatory response is characterized by intense inundation of the site with mononuclear cells, of which about half are lymphocytes and the other half monocytes. DTH is therefore an indicator of a monocyte-mediated immune reaction.
In one study, guinea pigs were sensitized to ovalbumin in adjuvant. The animals were then treated either orally or intraperitoneally with saline (control), dexamethasone (5 mg/kg), CdA (1 mg/kg) or CAFdA (1 mg/kg). The animals were then injected with ovalbumin intradermally to elicit the DTH response. The mean area of the swelling size was measured for each animal (nine or ten animals were treated for each protocol).

Series [12] has as its system delayed-type hypersensitivity (DTH) reaction. Briefly: Delayed-type hypersensitivity to ovalbumin in guinea pigs, different dosages of CdA. The following applies: dexamethasone 5 mg/kg; 24 and 48 hours post-challenge; p<0.01. Type of series: in vivo, guinea pig. The protocol:
as §4
In another study, the effects of different dosages of CdA on the DTH reaction were examined. Guinea pigs sensitized to ovalbumin were treated with saline (control), dexamethasone (5 mg/kg), and CdA at 1 mg/kg or 0.1 mg/kg. Three days after treatment, the animals were challenged with ovalbumin intradermally. The areas of the skin lesions were measured at 6, 24, and 48 hours after challenge.

For series [13] the following is noted: pH value of 1 at 37 degrees C.; cited from earlier work.
In series [14] the test system is antigen-induced arthritis. Briefly: Antigen-induced arthritis in rabbits. In kind it is in vivo. The following applies: CdA 1 mg/kg, tepoxalin 25 mg/kg, naproxen 5 mg/kg. The protocol:
Antigen-induced arthritis in rabbits is an animal model of rheumatoid arthritis. In this model, the rabbits are sensitized to an antigen such as ovalbumin or methylated bovine serum albumin in an adjuvant. Several weeks later, the same antigen is injected directly into the joints of the animal. […] Pettipher et al., Br. J. Exp. Path., 69:113-122 (1988).
Rabbits with antigen-induced arthritis were treated with CdA (1 mg/kg), tepoxalin (25 mg/kg) or naproxen (5 mg/kg).

The mark [15] stands for this setting: Homo sapiens, 120 h, read-out: ID50: concentration that produced 50 percent reduction in all numbers after five days.

Description for T cell line CEM: as §5
Description for T cell line Molt-4: as §5

For `Nc1nc(F)nc2c1ncn2[C@@H]1O[C@H](CO)[C@@H](O)[C@H]1O` [2-fluoroadenosine], in [1] (C57 black mice implanted with Ad755), the tolerated dose result is listed as “about 1 milligram per kilogram of body weight”. The “antitumor activity at the tolerated level” value in [1] (against Ad755 as well as leukemia L1210 and the Erlich ascites tumor) is “inactive”. Further, the “substrate behaviour toward adenosine deaminase” value in the series on adenosine deaminase is “negligible activity”.

For the compound `Cc1cn([C@H]2C[C@H](N=[N+]=[N-])[C@@H](CO)O2)c(=O)[nH]c1=O` [AZT, 3'-azido-3'-deoxythymidine], the “virus isolation rates from peripheral blood cells” value in the series with HIV [2] (clinical trials with AZT) is on record as “no effect”. In the series with HIV [2] (patients with AIDS or AIDS-related complex), the “CD4 (T4) peripheral blood cell counts” value is recorded as “elevation of CD4 (T4) peripheral blood cell counts”. The tolerability result in the series with HIV [2] (patients with AIDS or AIDS-related disease complexes) is given as “well tolerated”. Also, in the series on HIV [3], the “replication of HIV” value was “blocked the replication of HIV”. The “inhibition of p24 (gag) production” value in the series with HIV [4] is on record as “none of those compounds provided any inhibition”.

Take `Nc1nc(Cl)nc2c1ncn2[C@@H]1O[C@H](CO)[C@@H](O)[C@@H]1F` [CAFdA, 2-chloro-9,1'-beta-2'-deoxy-2'-fluoro-D-arabinofuranosyladenine]: the viability at 0.06 µM (in the series on T cell line Molt-4; in series [5]; in series [6]; in [7]; in the series with T cell line CEM) was < 20% in each case. Further, the viability at 0.13 µM (with T cell line Molt-4; in [5]; in [6]; in series [7]; with T cell line CEM) was < 10% in each case. The viability at 0.05 µM (in [5]; in series [6]; in the series on T cell line CEM) was ≤ 60% throughout. Moreover, the “ID50 ratio CAFdA / CdA” value in the series on DHL9, wild type is given as 1.9; in series [8], 1.9; in series [9], 2.1; with CEM, wild type, 3.1; in series [10], 15; with monocytes, 2.1. Besides, the IC50 with DHL9, wild type (setting [15]) was found to be 150 nM; in series [8] (Homo sapiens, Lymphocyte, 120 h, read-out: ID50: concentration that produced 50 percent reduction in all numbers after five days), 18 nM; with CEM, wild type (setting [15]) it was 67 nM; in series [10] (setting [15]), 6000 nM; in the series on monocytes (Homo sapiens, Monocyte, 120 h, read-out: ID50: concentration that produced 50 percent reduction in all numbers after five days), 47 nM. Further, the “swelling after ovalbumin challenge compared to saline control” value in [11] (intraperitoneal) and in [11] (oral) was “significant inhibition of swelling” throughout.

As for `C[C@@H]1C[C@H]2[C@@H]3CCC4=CC(=O)C=C[C@]4(C)[C@@]3(F)[C@@H](O)C[C@]2(C)[C@@]1(O)C(=O)CO` [dexamethasone, reference compound], the “swelling compared to control saline treated animals” value in [12] was “effective at inhibiting swelling”. Besides, the “swelling after ovalbumin challenge compared to saline control” value in series [11] (intraperitoneal) and in series [11] (oral) was “significant inhibition of swelling” each time.

With `Nc1ncnc2c1ncn2[C@H]1CC[C@@H](CO)O1` [ddA, 2',3'-dideoxyadenosine], the half-time in series [13] is 35 s. Further, the “substrate behaviour toward adenosine deaminase” value with adenosine deaminase is on record as “known substrate for adenosine deaminase”. Moreover, in the series with HIV [4], the “inhibition of p24 (gag) production” value is listed as “none of those compounds provided any inhibition”.

On to `COc1ccc2cc([C@H](C)C(=O)O)ccc2c1` [Naproxen, naproxen, reference compound], for which, in series [14], the “pathological examination of joints compared to untreated controls” value was “appeared to exacerbate the inflammation and tissue destruction”.
